# Measured values: patent US20210032257A1, “(E)-1-(4-(DIMETHYLAMINO)BUT-2-ENOYL)PYRROLIDIN-3-YL 4-((3-ISOPROPYL-5-METHYLPYRAZOLO[1,5-A]PYRIMIDIN-7-YL)AMINO)PIPERIDINE-1-CARBOXYLATE FOR INHIBITING CDK7” (Eli Lilly and Company, priority 2017, published 2021)
# Key:
# [1] = system: phospho-carboxyl terminal domain (Ser2) in HCT116 cells; test: p-CTD (S2) cell based Acumen assay; conditions: Homo sapiens, HCT-116, 4 hours, read-out: relative IC50 for phosphoCTD (S2)
# Method: HCT116 cells (ATCC CCL-247) are cultured in McCoy's 5A Medium Modified media supplemented with 10% FBS, 1% NaPyr and 1% Pen/Strep and plated (prior to becoming 70% confluent) in 96-well flat-bottom plates at a density of 5,000 cells per well in 100 μL volume. The cells are then incubated overnight in a cell culture incubator (5% CO2, 95% Relative Humidity (RH) and 37° C.) and allowed to attach to the plate. The following morning the cells are dosed with compounds. Compound inhibitors are first solubilized at 60 μM in culture medium containing 0.6% DMSO. Subsequently compound serial dilutions (1:3) are prepared over a […] to […] range. […]
# The following day cells are washed three times with PBS (100 μL/well) and incubated with 50 μL/well of secondary antibody (1:2000 dilution, Goat anti-rabbit IgM ALEXA FLUOR™ 488) in PBS for 1 hour at RT. […] Plates are analyzed on Acumen on FL2 (mean intensity), and FL3 (total intensity). Fluorescence plates are scanned with ACUMEN EXPLORER™ [Laser-scanning fluorescence microplate cytometer manufactured by TTP LABTECH LTD] to measure anti-phospho-carboxyl terminal domain at Serine 2 (pCTD). […]
# The IC50 is determined by curve fitting to a four parameter logistic for each output using GENE DATA™.
# Karpas1106 = test: Biomarker study proliferation (CellTiter-Glo); assay type: cell-based
# Method in brief: (§1)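 Cells seeded at 5000/well, incubated overnight at 37 °C, 5% CO2, then treated with 10-point 1:3 dilutions from a 10 mM DMSO working solution. After 7 days, ATP luminescence was read by CellTiter-Glo. Classed insensitive (IC50≥1 μM), cytostatic (IC50<1 μM, inhibition <70%) or cytotoxic (IC50<1 μM, inhibition ≥70%).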
# IMR32 = test: Biomarker study proliferation (CellTiter-Glo); assay type: cell-based
# Method in brief: as §1
# SNU449 = test: Biomarker study proliferation (CellTiter-Glo); assay type: cell-based
# Method in brief: as §1
# KYSE150 = test: Biomarker study proliferation (CellTiter-Glo); assay type: cell-based
# Method in brief: as §1
# CDK7/CyclinH/Mat1 = CDK7/CyclinH/Mat1 (Homo sapiens, UniProt P50613); test: Biochemical assay for inhibition of CDK7/CyclinH/MAT1 (radiolabel filter binding)
# Chain of CDK7/CyclinH/Mat1 (P50613 whole entry): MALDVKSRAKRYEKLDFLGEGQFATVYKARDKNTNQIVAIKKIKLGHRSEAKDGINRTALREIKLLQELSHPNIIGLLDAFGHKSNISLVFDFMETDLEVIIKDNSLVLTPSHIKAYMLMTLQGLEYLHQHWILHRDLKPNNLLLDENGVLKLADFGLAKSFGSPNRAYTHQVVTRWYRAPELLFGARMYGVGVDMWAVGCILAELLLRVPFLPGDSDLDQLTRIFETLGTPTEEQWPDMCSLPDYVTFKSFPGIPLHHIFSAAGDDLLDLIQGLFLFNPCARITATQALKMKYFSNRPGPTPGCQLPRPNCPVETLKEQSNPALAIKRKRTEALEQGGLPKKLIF
# Chain of CDK7/CyclinH/Mat1 (P51946 whole entry partner): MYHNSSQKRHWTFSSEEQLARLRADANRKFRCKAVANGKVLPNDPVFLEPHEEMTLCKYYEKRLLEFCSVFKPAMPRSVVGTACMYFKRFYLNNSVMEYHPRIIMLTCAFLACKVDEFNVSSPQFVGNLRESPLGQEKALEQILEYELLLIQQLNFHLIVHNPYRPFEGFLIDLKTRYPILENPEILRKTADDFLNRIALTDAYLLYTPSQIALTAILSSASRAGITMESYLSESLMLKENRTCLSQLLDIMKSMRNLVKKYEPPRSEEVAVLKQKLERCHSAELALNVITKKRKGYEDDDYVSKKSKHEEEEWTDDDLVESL
# Chain of CDK7/CyclinH/Mat1 (P51948 whole entry partner): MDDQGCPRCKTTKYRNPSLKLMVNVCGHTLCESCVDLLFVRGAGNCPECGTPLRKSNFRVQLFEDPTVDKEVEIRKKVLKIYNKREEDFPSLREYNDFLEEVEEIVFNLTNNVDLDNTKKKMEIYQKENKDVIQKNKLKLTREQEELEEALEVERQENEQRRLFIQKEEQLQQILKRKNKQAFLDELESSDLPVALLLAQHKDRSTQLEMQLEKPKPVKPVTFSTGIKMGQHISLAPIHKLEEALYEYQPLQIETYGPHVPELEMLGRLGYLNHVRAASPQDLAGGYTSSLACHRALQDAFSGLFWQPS
# Method: The purpose of this assay is to measure the ability of a compound of the invention to inhibit CDK7/CyclinH/Mat1 complex kinase activity.
# The IC50 activity of the inhibitor is determined using radiolabel filter binding (FB) assays using the purified human recombinant enzyme in the presence of ATP//[3^3P]ATP and peptide substrate. The ATP concentrations chosen are at or near the enzyme Km for ATP.
# Reactions are carried out in 96 well polystyrene plates in a final volume of 25 μL per well. 5 μL of test compound in 20% DMSO, 10 μL of substrate solution (ATP/33PATP and CDK7/9 tide) and 10 μL of enzyme solution are mixed. […] The enzyme solution is prepared for a final concentration of 1 nM CDK7/CyclinH/Mat1 enzyme [Proqinase 0366-0360-4 Lot 002)] diluted in kinase buffer. Test compounds are serially diluted 1:3 in 20% DMSO to create a 10 point curve at a starting concentration of 20 μM. 20% DMSO buffer alone without test compound is employed as high control (full activity in the absence of any inhibitor), 500 mM EDTA is used to determine the level of background in the absence of enzyme activity (low control). After mixing 5 μL of compounds with 10 μL of enzyme solution the plate is incubated for 0 or 180 minutes at 22° C. After that time the reaction is initiated by the addition of 10 μL substrate solution and incubated for 50 minutes at 22° C. The reaction is terminated by the addition of 80 μL of cold 10% ortophosphoric solution. The Filter Plates (opaque, non-sterile filter plates) are prewashed with 10 μL of 10% orthophosphoric solution to each well. 100 μL of the mixture are transferred to a phosphocellulose filter and incubated at room temperature for 45 minutes. Filter plates are washed with 200 μL 0.5% orthophosphoric acid 3 times on a filter plate processor. Incorporation of 33Pi (counting of “cpm”) is determined by adding 80 μL of MICROSCINT™ to each well and read on a counter after an hour. Data is processed through a [sequence] […] ® tool. Data are analyzed using a 4-parameter nonlinear logistic equation (four-parameter logistic concentration-response curve): Y=bot+[(top-bot)/1+(x/IC50)slope] where Y=% inhibition, X=concentration yielding y % inhibition, Bottom=minimum value of y attained by curve, Top=maximum value of y attained by curve and Slope=steepness of curve at IC50. % Inh=[(median Max−x/median Max−median Min)]·100
# IC50: concentration of compound that reduces a given response (ligand binding, enzyme response) by 50%.
smiles,measurement,setting,value
"Cc1cc(NC2CCN(C(=O)O[C@H]3CCN(C(=O)/C=C/CN(C)C)C3)CC2)n2ncc(C(C)C)c2n1 [Example 1, [(3S)-1-[(E)-4-(dimethylamino)but-2-enoyl]pyrrolidin-3-yl] 4-[(3-isopropyl-5-methyl-pyrazolo[1,5-a]pyrimidin-7-yl)amino]piperidine-1-carboxylate]",IC50,[1],> 2000 nM
same,IC50,"Karpas1106; 168 h, read-out: Anti-proliferation effect IC50",26 nM
same,Anti-proliferation effect % Inh.,"Karpas1106; Karpas1106, BLOOD, 7 days",98%
same,Anti-proliferation effect Outcome,"Karpas1106; Karpas1106, BLOOD, 7 days",Cytotoxic (cytotoxic (IC50<1 μM and % inhibition ≥70%))
same,IC50,"IMR32; Homo sapiens, IMR-32, 168 h, read-out: Anti-proliferation effect IC50",2 nM
same,Anti-proliferation effect % Inh.,"IMR32; IMR32, CNS, 7 days",100%
same,Anti-proliferation effect Outcome,"IMR32; IMR32, CNS, 7 days",Cytotoxic (cytotoxic (IC50<1 μM and % inhibition ≥70%))
same,IC50,"SNU449; Homo sapiens, SNU-449, 168 h, read-out: Anti-proliferation effect IC50",1520 nM
same,Anti-proliferation effect % Inh.,"SNU449; SNU449, LIVER, 7 days",8%
same,Anti-proliferation effect Outcome,"SNU449; SNU449, LIVER, 7 days",Insensitive (insensitive (IC50≥1 μM))
same,IC50,"KYSE150; Homo sapiens, KYSE-150, 168 h, read-out: Anti-proliferation effect IC50",42 nM
same,Anti-proliferation effect % Inh.,"KYSE150; KYSE150, OESOPHAGUS, 7 days",64%
same,Anti-proliferation effect Outcome,"KYSE150; KYSE150, OESOPHAGUS, 7 days",Cytostatic (cytostatic (IC50<1 μM and % inhibition <70%))
same,IC50,"CDK7/CyclinH/Mat1; IC50 in CDK7, 3 hours of preincubation of CDK7 enzyme",2.37 nM
same,IC50,"CDK7/CyclinH/Mat1; IC50 in CDK7, without preincubation",17.3 nM
